In paper PMC9228215, “Anion-Sensing Properties of Cyclopentaphenylalanine” (Molecules, 2022):
Where a SMILES comes first, the peptide text is derived from it.

Legend:
[1] = Comparison of stability constants in methanol and acetonitrile, bromide; assay type: binding; conditions: 25 °C
Method: (§1) Fluorimetric titrations were conducted on Varian Cary Eclipse Fluorimeter, UV-Vis spectra were recorded by Agilent Cary 5000 spectrophotometer, and CD spectra were recorded on JASCO J815 spectrophotometer. Fluorimeter and UV-Vis spectrophotometer were connected to thermostating device, whereas CD titrations were performed at room temperature. The excitation wavelength used in all fluorimetric titrations was 260 nm, spectra were recorded at 2 nm interval with 0.4 s integration time, 10 nm excitation, and emission slits were used. In titrations with iodide, the obtained spectra were corrected by the anion concentration dependent solvent emission spectra. […] CD spectra were recorded in the 200–300 nm wavelength range with a 0.2 nm data pitch and scanning speed of 200 nm/min; 2 scans were accumulated for each spectrum. […]
(§2) ^1H NMR titrations were carried out at 25 °C by means of a Bruker Avance III HD 400 MHz with a solvent signal used as a standard. […] Spectra were recorded at 16 pulses. ^1H NMR spectra were processed and visualized by means of MestReNova 6.1 software (Mestrelab Research, Santiago de Compostela, Spain). Stability constants of the corresponding complexes were determined from the obtained ^1H NMR spectra by using multivariate analysis implemented in HypNMR 4.0 software (Protonic Software, Leeds, UK) included in the Hyperquad program package.

[2] = Solubility determination of L (saturated solutions, spectrophotometric); assay type: physicochemical
Method: Saturated solutions of L in acetonitrile and methanol were prepared by adding an excess amount of the solid substance to the solvent. The obtained mixtures were left in a thermostat at 25 °C for several days in order to equilibrate. The concentrations of saturated solutions were determined at 25.0 °C spectrophotometrically by means of a Varian Cary 5000 spectrophotometer equipped with a thermostatting device. Calibration curves were obtained by measuring the absorbances of solutions of known concentrations.

[3] = Isothermal titration calorimetry (microcalorimetry) of L with chloride; assay type: binding; conditions: acetonitrile, 25.0 °C, measurements repeated three times
Method: Microcalorimetric measurements were conducted with an isothermal titration calorimeter Microcal VP-ITC at 25.0 °C. Thermograms were processed using the Microcal OriginPro 7.0 program (OriginLab Corporation, Northampton, MA, USA).
In the calorimetric studies of chloride complexation by L, the enthalpy changes were recorded upon stepwise additions of salt solution into the solution of cyclopeptide ligand (V0 = 1.4 cm^3). The heats measured in the titration experiments were corrected for the heats of titrant dilution obtained by blank experiments. The dependence of successive enthalpy changes on the titrant volume was processed by non-linear least-squares fitting procedure using OriginPro 7.5 program (OriginLab Corporation, Northampton, MA, USA). Measurements were repeated three times.

[4] = Comparison of stability constants in methanol and acetonitrile, chloride; assay type: binding; conditions: 25 °C
Method: as §1
as §2, with “package. […]” for “package.”

[5] = cited from earlier work
From the text: The reaction enthalpy (−15 kJ mol^−1) and entropy (65 J mol^−1 K^−1) for L-Cl complex formation are close to the corresponding values for complexation of chloride with cyclopentaleucine (∆rH = −11 kJ mol^−1, ∆rS = 76 J mol^−1 K^−1). Therefore, the inclusion of fluorescent groups to the cyclopeptide sidechain improved the anion detection capability ...

| Compound | Decrease in stability constant in methanol compared to acetonitrile, in the log K value [1] | Transfer Gibbs energy of L (MeCN→MeOH) ([2]; determined from ligand solubilities in acetonitrile and methanol, 25 °C) | Solubility of free L in acetonitrile ([2]; thermodynamic, excess solid in acetonitrile, equilibrated several days at 25 °C, saturated solution measured spectrophotometrically (UV) at 25.0 °C with calibration curve) | Solubility of free L in methanol ([2]; thermodynamic, excess solid in methanol, equilibrated several days at 25 °C, saturated solution measured spectrophotometrically (UV) at 25.0 °C with calibration curve) | Reaction enthalpy for L-Cl complex formation [3] [kcal/mol] | Reaction entropy for L-Cl complex formation [3] [J mol^−1 K^−1] | Decrease in stability constant in methanol compared to acetonitrile, in the log K value [4] | ∆rH for complexation of chloride with cyclopentaleucine [5] [kcal/mol] | ∆rS for complexation of chloride with cyclopentaleucine [5] [J mol^−1 K^−1] |
| --- | --- | --- | --- | --- | --- | --- | --- | --- | --- |
| O=C1N[C@@H](Cc2ccccc2)C(=O)N[C@@H](Cc2ccccc2)C(=O)N[C@@H](Cc2ccccc2)C(=O)N[C@@H](Cc2ccccc2)C(=O)N[C@H]1Cc1ccccc1 [L, cyclopentaphenylalanine] (cyclo(FFFFF)) | ~3.5 | negligible | (2.72 ± 0.02) × 10^−3 mol dm^−3 | (2.81 ± 0.03) × 10^−3 mol dm^−3 | -3.59 | 65 | about 4.5 |  |  |
| cyclopentaleucine |  |  |  |  |  |  |  | -2.63 | 76 |
